This note sets out measurements from ChEMBL document CHEMBL5346903, “Discovery of novel and bioavailable histone deacetylases and cyclin-dependent kinases dual inhibitor to impair the stemness of leukemia cells” (Eur J Med Chem, 2023).

The subject of series [1] is U-937. The series can be described thus: Induction of apoptosis in human U-937 cells assessed as early apoptotic cells at 0.5 uM incubated for 48 hrs by annexin V-FITC/PI satining based flow cytometry (reference value: 0.945 %). The series is classed as functional. In general terms: In flow cytometry, cells or beads pass a laser one at a time.
A short description of series [2]: MRT in Sprague-Dawley rat at 25 mg/kg, po measured upto 8 hrs by LC/MS-MS analysis. Conditions: in vivo. The series is classed as ADME, organism-based.
The subject of series [3] is U-937. Nature of the series: Induction of differentiation in human U-937 cells assessed as increase in CD11b positive cells at 1 uM incubated for 48 hrs by FITC staining based flow cytometry (reference value: 2.72 %). The series is classed as functional.
Series [4] is described as follows: Antiproliferative activity against human SKNO-1 cells incubated for 72 hrs by CCK8 assay. The series is classed as functional, cell-based. Conditions: SKNO-1, 72 h. A general note: Tetrazolium assays rely on reduction of a dye to a coloured formazan, in cell work by metabolically active cells.
Series [5] has as its system U-937. Nature of the series: Inhibition of colony formation in human U-937 cells treated for 15 days by soft agar assay. The series is classed as functional, cell-based. Conditions: time 15.0 day.
Series [6] concerns U-937. Nature of the series: Antiproliferative activity against human U-937 cells incubated for 72 hrs by CCK8 assay. The series is classed as functional, cell-based. Conditions: U-937, 72 h.
For series [7], the system named is HL-60. Nature of the series: Induction of apoptosis in human HL-60 cells assessed as late apoptotic cells at 0.5 uM incubated for 48 hrs by annexin V-FITC/PI satining based flow cytometry (reference value: 1.33 %). The series is classed as functional.
The target of series [8] is Protein deacetylase HDAC6 (Homo sapiens, UniProt Q9UBN7). Nature of the series: Inhibition of recombinant human HDAC6 using HDAC substrate incubated for 30 mins by fluorescence based assay.
Chain of Protein deacetylase HDAC6 (Q9UBN7 whole entry): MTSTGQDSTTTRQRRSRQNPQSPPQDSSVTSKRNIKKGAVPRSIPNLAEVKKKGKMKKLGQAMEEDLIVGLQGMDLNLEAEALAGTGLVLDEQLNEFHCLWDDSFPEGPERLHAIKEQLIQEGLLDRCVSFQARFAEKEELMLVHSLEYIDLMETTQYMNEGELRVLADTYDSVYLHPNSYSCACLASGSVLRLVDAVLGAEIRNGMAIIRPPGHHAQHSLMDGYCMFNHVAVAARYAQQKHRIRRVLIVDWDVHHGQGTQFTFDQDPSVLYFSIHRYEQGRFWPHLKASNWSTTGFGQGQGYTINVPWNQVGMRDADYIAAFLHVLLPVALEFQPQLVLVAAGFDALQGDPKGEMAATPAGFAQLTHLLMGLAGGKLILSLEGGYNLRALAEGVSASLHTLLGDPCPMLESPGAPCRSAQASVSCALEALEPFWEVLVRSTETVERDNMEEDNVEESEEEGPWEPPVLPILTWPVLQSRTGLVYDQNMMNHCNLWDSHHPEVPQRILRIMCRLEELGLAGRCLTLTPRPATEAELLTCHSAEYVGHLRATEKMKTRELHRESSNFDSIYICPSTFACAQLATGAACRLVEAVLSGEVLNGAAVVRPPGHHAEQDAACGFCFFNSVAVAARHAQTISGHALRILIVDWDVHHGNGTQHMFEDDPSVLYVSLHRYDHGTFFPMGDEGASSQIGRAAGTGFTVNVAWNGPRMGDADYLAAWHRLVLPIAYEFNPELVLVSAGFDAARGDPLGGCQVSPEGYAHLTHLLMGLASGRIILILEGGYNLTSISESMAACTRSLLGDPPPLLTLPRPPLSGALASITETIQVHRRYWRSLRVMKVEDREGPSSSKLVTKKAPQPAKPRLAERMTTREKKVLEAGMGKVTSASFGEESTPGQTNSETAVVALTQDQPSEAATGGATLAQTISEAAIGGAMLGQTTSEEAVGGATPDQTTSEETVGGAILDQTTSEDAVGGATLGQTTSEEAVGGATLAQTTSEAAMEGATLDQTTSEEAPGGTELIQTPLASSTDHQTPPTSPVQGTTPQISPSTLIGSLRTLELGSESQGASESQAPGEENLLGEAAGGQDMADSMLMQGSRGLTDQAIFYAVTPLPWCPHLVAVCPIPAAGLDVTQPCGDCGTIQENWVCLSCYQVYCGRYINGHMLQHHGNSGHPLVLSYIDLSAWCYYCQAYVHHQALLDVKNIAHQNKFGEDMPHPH
Series [9] addresses Cyclin-dependent kinase 1/cyclin B1 (Homo sapiens) (UniProt P06493+P14635). Nature of the series: Inhibition of CDK1/cyclinB1 (unknown origin) at 100 nM preincubated for 20 mins followed by [gamma-33P]ATP addition measured after 120 mins in presence of ATP by Hot-SpotSM kinase assay relative to control. It counts as protein-complex assay. Conditions: time 140.0 min.
Series [10] concerns HL-60. The series can be described thus: Inhibition of colony formation in human HL-60 cells treated for 15 days by soft agar assay. The series is classed as functional, cell-based. Conditions: time 15.0 day.
A short description of series [11]: Half life in Sprague-Dawley rat at 25 mg/kg, po measured upto 8 hrs by LC/MS-MS analysis. It counts as ADME, organism-based. Conditions: in vivo.
The target of series [12] is CDK4/Cyclin D3 (Homo sapiens) (UniProt P11802+P30281). The series can be described thus: Inhibition of CDK4/cyclinD3 (unknown origin) at 100 nM preincubated for 20 mins followed by [gamma-33P]ATP addition measured after 120 mins in presence of ATP by Hot-SpotSM kinase assay relative to control. The series is classed as protein-complex assay. Conditions: time 140.0 min.

The target in series [13] is Cyclin-dependent kinase 5/CDK5 activator 1 (Homo sapiens) (UniProt Q00535+Q15078). The series can be described thus: Inhibition of CDK5/p25NCK (unknown origin) at 100 nM preincubated for 20 mins followed by [gamma-33P]ATP addition measured after 120 mins in presence of ATP by Hot-SpotSM kinase assay relative to control. It counts as protein-complex assay. Conditions: time 140.0 min.
Chain of Cyclin-dependent kinase 5/CDK5 activator 1 (Homo sapiens) (Q00535 whole entry): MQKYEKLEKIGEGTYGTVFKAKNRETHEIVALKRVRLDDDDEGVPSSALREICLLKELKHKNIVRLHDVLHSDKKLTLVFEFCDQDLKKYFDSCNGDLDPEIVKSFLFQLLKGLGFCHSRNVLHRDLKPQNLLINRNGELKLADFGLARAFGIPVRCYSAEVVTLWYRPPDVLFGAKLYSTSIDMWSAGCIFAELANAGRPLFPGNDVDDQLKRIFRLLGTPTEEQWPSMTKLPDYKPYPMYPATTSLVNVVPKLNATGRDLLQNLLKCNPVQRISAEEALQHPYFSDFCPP
Chain of Cyclin-dependent kinase 5/CDK5 activator 1 (Homo sapiens) (Q15078 99-307 partner limits assumed): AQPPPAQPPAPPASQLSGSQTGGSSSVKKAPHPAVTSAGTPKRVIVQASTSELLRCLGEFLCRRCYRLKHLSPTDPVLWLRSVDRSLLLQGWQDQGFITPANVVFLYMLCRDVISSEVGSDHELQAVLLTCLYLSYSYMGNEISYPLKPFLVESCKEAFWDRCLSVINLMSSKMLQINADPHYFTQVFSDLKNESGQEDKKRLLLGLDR

The test system of series [14] is HL-60. The series can be described thus: Induction of apoptosis in human HL-60 cells assessed as viable cells at 0.2 uM incubated for 48 hrs by annexin V-FITC/PI satining based flow cytometry (reference value: 97.4 %). Conditions: read-out: Activity. It counts as functional.
The subject of series [15] is HL-60. The series can be described thus: Induction of differentiation in human HL-60 cells assessed as increase in CD11b positive cells at 1 uM incubated for 24 hrs by FITC staining based flow cytometry (reference value: 1.45 %). The series is classed as functional.
In series [16] the test system is Kasumi 1. Nature of the series: Antiproliferative activity against human Kasumi 1 cells incubated for 72 hrs by CCK8 assay. The series is classed as functional, cell-based. Conditions: Kasumi 1, 72 h.
Series [17] addresses Histone deacetylase 9 (Homo sapiens, UniProt Q9UKV0). The series can be described thus: Inhibition of recombinant human HDAC9 using HDAC substrate incubated for 30 mins by fluorescence based assay.
In series [18] the test system is HL-60. The series can be described thus: Antiproliferative activity against human HL-60 cells incubated for 72 hrs by CCK8 assay. It counts as functional, cell-based. Conditions: HL-60, 72 h.
Series [19] has as its target CDK1/Cyclin A (Homo sapiens) (UniProt P06493+P20248). Nature of the series: Inhibition of CDK1/cyclinA2 (unknown origin) at 100 nM preincubated for 20 mins followed by [gamma-33P]ATP addition measured after 120 mins in presence of ATP by Hot-SpotSM kinase assay relative to control. The series is classed as protein-complex assay. Conditions: time 140.0 min.
The test system of series [20] is HL-60. The series can be described thus: Induction of differentiation in human HL-60 cells assessed as increase in CD11b positive cells at 2 uM incubated for 24 hrs by FITC staining based flow cytometry (reference value: 1.45 %). It counts as functional.
In series [21] the test system is HL-60. Nature of the series: Induction of apoptosis in human HL-60 cells assessed as necrotic cells at 1 uM incubated for 48 hrs by annexin V-FITC/PI satining based flow cytometry (reference value: 0.00 %). The series is classed as functional.
Series [22] has as its system U-937. The series can be described thus: Induction of apoptosis in human U-937 cells assessed as late apoptotic cells at 0.5 uM incubated for 48 hrs by annexin V-FITC/PI satining based flow cytometry (reference value: 7.10 %). The series is classed as functional.
Series [23] concerns HL-60. Nature of the series: Induction of apoptosis in human HL-60 cells assessed as necrotic cells at 2 uM incubated for 48 hrs by annexin V-FITC/PI satining based flow cytometry (reference value: 0.00 %). The series is classed as functional.
The target of series [24] is Histone deacetylase (Homo sapiens) (UniProt Q13547+O15379+Q9UBN7+Q92769+Q9UQL6+Q8WUI4+Q9BY41+Q96DB2+P56524+Q9UKV0+Q969S8). Nature of the series: Inhibition of HDAC in human nuclear extract using Ac-Arg-Gly-Lys(Ac)-AMC as substrate at 1 uM incubated overnight by fluorescence based assay relative to control. It counts as subcellular. Conditions: HeLa, Nucleus.
For series [25], the target named is Histone deacetylase 2 (Homo sapiens, UniProt Q92769). The series can be described thus: Inhibition of HDAC2 in human nuclear extract using Ac-Arg-Gly-Lys(Ac)-AMC as substrate at 1 uM incubated overnight by fluorescence based assay relative to control. Conditions: HeLa, Nucleus. The series is classed as subcellular.
Chain of Histone deacetylase 2 (Q92769 whole entry): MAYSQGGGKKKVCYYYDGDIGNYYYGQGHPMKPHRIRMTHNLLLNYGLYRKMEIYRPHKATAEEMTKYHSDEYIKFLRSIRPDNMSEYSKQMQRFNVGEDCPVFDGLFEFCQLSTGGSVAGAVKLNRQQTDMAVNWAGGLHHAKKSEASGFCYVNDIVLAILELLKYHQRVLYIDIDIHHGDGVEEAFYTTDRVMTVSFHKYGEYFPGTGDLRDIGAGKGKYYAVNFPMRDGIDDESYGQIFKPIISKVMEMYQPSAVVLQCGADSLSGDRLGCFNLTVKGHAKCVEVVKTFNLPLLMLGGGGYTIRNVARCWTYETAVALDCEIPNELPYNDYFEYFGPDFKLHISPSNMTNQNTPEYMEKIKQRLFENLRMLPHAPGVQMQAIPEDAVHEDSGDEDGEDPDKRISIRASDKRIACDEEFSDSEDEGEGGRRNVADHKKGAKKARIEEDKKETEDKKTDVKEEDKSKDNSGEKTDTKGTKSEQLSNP
For series [26], the system named is U-937. Nature of the series: Induction of differentiation in human U-937 cells assessed as increase in CD11b positive cells at 1.5 uM incubated for 48 hrs by FITC staining based flow cytometry (reference value: 2.72 %). It counts as functional.
Series [27] concerns HL-60. The series can be described thus: Induction of apoptosis in human HL-60 cells assessed as viable cells at 0.6 uM incubated for 48 hrs by annexin V-FITC/PI satining based flow cytometry (reference value: 94.7 %). Conditions: read-out: Activity. The series is classed as functional.
Series [28] concerns HL-60. The series can be described thus: Induction of differentiation in human HL-60 cells assessed as increase in CD11b positive cells at 5 uM incubated for 24 hrs by FITC staining based flow cytometry (reference value: 1.12 %). The series is classed as functional.
In series [29] the test system is HL-60. Nature of the series: Induction of apoptosis in human HL-60 cells assessed as necrotic cells at 2.5 uM incubated for 48 hrs by annexin V-FITC/PI satining based flow cytometry (reference value: 0.04 %). The series is classed as functional.
In series [30] the test system is HL-60. Nature of the series: Induction of apoptosis in human HL-60 cells assessed as viable cells at 2.5 uM incubated for 48 hrs by annexin V-FITC/PI satining based flow cytometry (reference value: 94.7 %). It counts as functional. Conditions: read-out: Activity.
Series [31] has as its system U-937. Nature of the series: Induction of apoptosis in human U-937 cells assessed as necrotic cells at 5 uM incubated for 48 hrs by annexin V-FITC/PI satining based flow cytometry (reference value: 0.102 %). The series is classed as functional.
The test system of series [32] is HL-60. Nature of the series: Induction of apoptosis in human HL-60 cells assessed as viable cells at 1.2 uM incubated for 48 hrs by annexin V-FITC/PI satining based flow cytometry (reference value: 94.7 %). It counts as functional. Conditions: read-out: Activity.
The subject of series [33] is U-937. Nature of the series: Induction of apoptosis in human U-937 cells assessed as viable cells at 0.6 uM incubated for 48 hrs by annexin V-FITC/PI satining based flow cytometry (reference value: 93.7 %). Conditions: read-out: Activity. It counts as functional.

The structures appear in SMILES notation.

Chain of CDK1/Cyclin A (Homo sapiens) (P06493 whole entry, looked up): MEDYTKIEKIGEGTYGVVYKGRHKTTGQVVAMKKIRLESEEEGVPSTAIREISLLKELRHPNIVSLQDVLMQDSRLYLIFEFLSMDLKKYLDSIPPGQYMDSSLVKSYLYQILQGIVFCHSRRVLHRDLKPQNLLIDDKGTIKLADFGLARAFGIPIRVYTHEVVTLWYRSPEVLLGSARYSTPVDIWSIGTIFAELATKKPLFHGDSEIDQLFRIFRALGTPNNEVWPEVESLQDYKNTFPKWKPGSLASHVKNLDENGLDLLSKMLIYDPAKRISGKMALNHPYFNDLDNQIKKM
Chain of CDK1/Cyclin A (Homo sapiens) (P20248 whole entry, looked up): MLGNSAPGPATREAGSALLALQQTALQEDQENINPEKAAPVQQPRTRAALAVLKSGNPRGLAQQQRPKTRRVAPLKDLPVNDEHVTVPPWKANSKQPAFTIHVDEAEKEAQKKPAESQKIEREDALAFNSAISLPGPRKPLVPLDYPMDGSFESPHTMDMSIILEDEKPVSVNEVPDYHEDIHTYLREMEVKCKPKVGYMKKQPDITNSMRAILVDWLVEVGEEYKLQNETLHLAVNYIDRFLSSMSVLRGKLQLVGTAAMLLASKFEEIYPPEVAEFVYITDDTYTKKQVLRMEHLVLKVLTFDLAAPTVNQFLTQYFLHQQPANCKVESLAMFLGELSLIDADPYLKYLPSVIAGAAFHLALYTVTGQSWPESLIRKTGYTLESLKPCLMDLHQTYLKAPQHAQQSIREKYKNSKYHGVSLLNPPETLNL
Chain of Cyclin-dependent kinase 1/cyclin B1 (Homo sapiens) (P06493 whole entry, looked up): as the sequence (P06493 whole entry, looked up) above
Chain of Cyclin-dependent kinase 1/cyclin B1 (Homo sapiens) (P14635 whole entry, looked up): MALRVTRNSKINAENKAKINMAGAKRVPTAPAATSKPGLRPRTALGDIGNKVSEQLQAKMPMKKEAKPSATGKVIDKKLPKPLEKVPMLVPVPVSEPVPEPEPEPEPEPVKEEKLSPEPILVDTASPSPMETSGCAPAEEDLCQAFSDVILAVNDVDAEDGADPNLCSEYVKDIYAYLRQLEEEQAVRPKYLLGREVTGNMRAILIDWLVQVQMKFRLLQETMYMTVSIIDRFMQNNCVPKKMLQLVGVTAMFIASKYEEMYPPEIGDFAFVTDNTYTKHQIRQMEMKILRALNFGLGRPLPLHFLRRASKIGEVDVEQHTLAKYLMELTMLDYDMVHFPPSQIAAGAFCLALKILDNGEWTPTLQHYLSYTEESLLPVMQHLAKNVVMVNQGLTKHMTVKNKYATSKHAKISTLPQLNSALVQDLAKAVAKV
Chain of Histone deacetylase 9 (Q9UKV0 whole entry): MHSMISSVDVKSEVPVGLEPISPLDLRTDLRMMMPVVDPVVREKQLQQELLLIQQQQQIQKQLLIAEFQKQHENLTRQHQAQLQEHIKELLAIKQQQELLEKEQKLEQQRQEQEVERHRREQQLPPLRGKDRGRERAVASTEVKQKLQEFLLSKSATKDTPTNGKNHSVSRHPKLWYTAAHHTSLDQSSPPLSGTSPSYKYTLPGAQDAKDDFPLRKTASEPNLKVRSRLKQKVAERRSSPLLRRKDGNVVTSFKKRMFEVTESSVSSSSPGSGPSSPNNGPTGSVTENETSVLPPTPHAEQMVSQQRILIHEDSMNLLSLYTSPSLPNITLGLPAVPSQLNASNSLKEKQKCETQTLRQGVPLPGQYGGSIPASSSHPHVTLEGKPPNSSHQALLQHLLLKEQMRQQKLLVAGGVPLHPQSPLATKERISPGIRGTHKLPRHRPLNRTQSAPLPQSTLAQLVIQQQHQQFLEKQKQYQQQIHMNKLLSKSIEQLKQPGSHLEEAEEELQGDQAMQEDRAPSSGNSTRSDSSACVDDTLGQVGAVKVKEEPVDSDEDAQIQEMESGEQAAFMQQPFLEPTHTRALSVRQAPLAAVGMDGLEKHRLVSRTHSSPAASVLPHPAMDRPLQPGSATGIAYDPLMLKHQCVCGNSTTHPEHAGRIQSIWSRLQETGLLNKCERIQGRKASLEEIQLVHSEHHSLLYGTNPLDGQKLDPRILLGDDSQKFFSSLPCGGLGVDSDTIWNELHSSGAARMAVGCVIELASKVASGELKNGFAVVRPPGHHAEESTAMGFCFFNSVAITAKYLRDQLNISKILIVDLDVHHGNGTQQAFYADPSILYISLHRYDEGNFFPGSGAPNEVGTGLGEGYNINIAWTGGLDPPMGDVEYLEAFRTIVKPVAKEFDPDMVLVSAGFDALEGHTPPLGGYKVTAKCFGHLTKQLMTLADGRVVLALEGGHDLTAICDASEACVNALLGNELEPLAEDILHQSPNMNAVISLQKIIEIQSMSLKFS

The term MRT denotes a mean duration of stay, worked out from the concentration-time curve. A word on the IC50: it is the midpoint of a concentration-inhibition curve. For orientation: inhibition means the share of the control response that was lost under treatment. In the case of `Nc1ccccc1NC(=O)c1ccc(NC(=O)c2n[nH]cc2NC(=O)c2c(Cl)cccc2Cl)cc1`, the Activity in [1] is recorded as 1.99%; in [3], 6%; in series [7], 3.16%; in [15] it was 37.6%; in series [20] it was 62.2%; in series [21], 0.445%. Also, the Activity in [22] was determined as 14%; in series [23], 4.87%; in [26], 16%. Also, in series [2], the MRT was 1.27 h. The IC50 in series [4] was 1.63 µM; in series [6], 0.72 µM; in [8] it was 0.723 µM; in series [16] it was 0.89 µM; in series [17] it was greater than 1 µM; in [18], 1.43 µM. In addition, the inhibition entry in [5] was “Dose-Dependent Effect”; in series [9], 43.8%; in series [10], “Dose-Dependent Effect”; in series [12], 72.8%; in [13], 95.2%; in series [19], 31%. The inhibition in series [24] and in series [25] was 100% in each case. In [11], this compound yielded a t1/2 of 1.37 h. Further, the viability at 0.2 µM in series [14] is 96.4%.
Regarding `Nc1cc(F)ccc1NC(=O)c1ccc(CNC(=O)/C=C/c2cccnc2)cc1` [TUCIDINOSTAT], the viability at 0.6 µM in series [27] was 95.1%; in [33], 93.5%. The Activity in [28] is 71.1%; in series [29], 0.05%; in series [31], 0.117%. In addition, the half-maximal inhibitory concentration (IC50) is 5.57 µM in series [4], 4.66 µM in [6], greater than 10 µM in [16] and 3.11 µM in series [18]. Besides, the inhibition entry in series [5] and in series [10] was “Dose-Dependent Effect” throughout. In addition, in [30], the viability at 2.5 µM is 56.1%. The viability at 1.2 µM in series [32] was found to be 84.7%.
